# Source: ChEMBL document CHEMBL1671626, “In vitro profiling of ceftaroline against a collection of recent bacterial clinical isolates from across the United States” (2008)
# Key:
# Assay type in all cases: functional
# Staphylococcus aureus [1] = test: Antibacterial activity against methicillin-susceptible Staphylococcus aureus by CLSI M7-A7 broth microdilution method
# Staphylococcus aureus [2] = test: Antibacterial activity against methicillin-susceptible Staphylococcus aureus assessed as susceptible isolates by CLSI M7-A7 broth microdilution method
# Staphylococcus aureus [3] = test: Antibacterial activity against methicillin-susceptible Staphylococcus aureus assessed as resistant isolates by CLSI M7-A7 broth microdilution method
# Staphylococcus aureus [4] = test: Antibacterial activity against methicillin-resistant Staphylococcus aureus by CLSI M7-A7 broth microdilution method
# Staphylococcus aureus [5] = test: Antibacterial activity against methicillin-resistant Staphylococcus aureus assessed as susceptible isolates by CLSI M7-A7 broth microdilution method
# Staphylococcus aureus [6] = test: Antibacterial activity against methicillin-resistant Staphylococcus aureus assessed as resistant isolates by CLSI M7-A7 broth microdilution method
# Staphylococcus aureus [7] = test: Antibacterial activity against coagulase-negative and oxacillin-susceptible Staphylococcus aureus by CLSI M7-A7 broth microdilution method
# Staphylococcus aureus [8] = test: Antibacterial activity against coagulase-negative and oxacillin-susceptible Staphylococcus aureus assessed as susceptible isolates by CLSI M7-A7 broth microdilution method
# Staphylococcus aureus [9] = test: Antibacterial activity against coagulase-negative and oxacillin-susceptible Staphylococcus aureus assessed as resistant isolates by CLSI M7-A7 broth microdilution method
# Staphylococcus aureus [10] = test: Antibacterial activity against coagulase-negative and oxacillin-resistant Staphylococcus aureus by CLSI M7-A7 broth microdilution method
# Staphylococcus aureus [11] = test: Antibacterial activity against coagulase-negative and oxacillin-resistant Staphylococcus aureus assessed as susceptible isolates by CLSI M7-A7 broth microdilution method
# Staphylococcus aureus [12] = test: Antibacterial activity against coagulase-negative and oxacillin-resistant Staphylococcus aureus assessed as resistant isolates by CLSI M7-A7 broth microdilution method
# Enterococcus faecalis [13] = test: Antibacterial activity against vancomycin-susceptible Enterococcus faecalis by CLSI M7-A7 broth microdilution method
# Enterococcus faecalis [14] = test: Antibacterial activity against vancomycin-resistant Enterococcus faecalis by CLSI M7-A7 broth microdilution method
# Enterococcus faecium = test: Antibacterial activity against vancomycin-resistant Enterococcus faecium by CLSI M7-A7 broth microdilution method
# Moraxella catarrhalis = test: Antibacterial activity against beta lactamase-positive Moraxella catarrhalis by CLSI M7-A7 broth microdilution method
# Enterobacteriaceae [15] = test: Antibacterial activity against ceftazidime-susceptible Enterobacteriaceae by CLSI M7-A7 broth microdilution method
# Enterobacteriaceae [16] = test: Antibacterial activity against ceftazidime-susceptible Enterobacteriaceae assessed as susceptible isolates by CLSI M7-A7 broth microdilution method
# Enterobacteriaceae [17] = test: Antibacterial activity against ceftazidime-susceptible Enterobacteriaceae assessed as resistant isolates by CLSI M7-A7 broth microdilution method
# Enterobacteriaceae [18] = test: Antibacterial activity against ceftazidime-nonsusceptible Enterobacteriaceae by CLSI M7-A7 broth microdilution method
# Enterobacteriaceae [19] = test: Antibacterial activity against ceftazidime-nonsusceptible Enterobacteriaceae assessed as susceptible isolates by CLSI M7-A7 broth microdilution method
# Enterobacteriaceae [20] = test: Antibacterial activity against ceftazidime-nonsusceptible Enterobacteriaceae assessed as resistant isolates by CLSI M7-A7 broth microdilution method
# Citrobacter freundii [21] = test: Antibacterial activity against ceftazidime-susceptible Citrobacter freundii by CLSI M7-A7 broth microdilution method
# Citrobacter freundii [22] = test: Antibacterial activity against ceftazidime-susceptible Citrobacter freundii assessed as susceptible isolates by CLSI M7-A7 broth microdilution method
# Citrobacter freundii [23] = test: Antibacterial activity against ceftazidime-susceptible Citrobacter freundii assessed as resistant isolates by CLSI M7-A7 broth microdilution method
# Citrobacter freundii [24] = test: Antibacterial activity against ceftazidime-nonsusceptible Citrobacter freundii by CLSI M7-A7 broth microdilution method
# Citrobacter freundii [25] = test: Antibacterial activity against ceftazidime-nonsusceptible Citrobacter freundii assessed as susceptible isolates by CLSI M7-A7 broth microdilution method
# Citrobacter freundii [26] = test: Antibacterial activity against ceftazidime-nonsusceptible Citrobacter freundii assessed as resistant isolates by CLSI M7-A7 broth microdilution method
# Enterobacter cloacae [27] = test: Antibacterial activity against ceftazidime-susceptible Enterobacter cloacae by CLSI M7-A7 broth microdilution method
# Enterobacter cloacae [28] = test: Antibacterial activity against ceftazidime-susceptible Enterobacter cloacae assessed as susceptible isolates by CLSI M7-A7 broth microdilution method
# Enterobacter cloacae [29] = test: Antibacterial activity against ceftazidime-susceptible Enterobacter cloacae assessed as resistant isolates by CLSI M7-A7 broth microdilution method
# Enterobacter cloacae [30] = test: Antibacterial activity against ceftazidime-nonsusceptible Enterobacter cloacae by CLSI M7-A7 broth microdilution method
# Enterobacter cloacae [31] = test: Antibacterial activity against ceftazidime-nonsusceptible Enterobacter cloacae assessed as resistant isolates by CLSI M7-A7 broth microdilution method
# Escherichia coli [32] = test: Antibacterial activity against ceftazidime-susceptible Escherichia coli by CLSI M7-A7 broth microdilution method
# Escherichia coli [33] = test: Antibacterial activity against ceftazidime-susceptible Escherichia coli assessed as susceptible isolates by CLSI M7-A7 broth microdilution method
# Escherichia coli [34] = test: Antibacterial activity against ceftazidime-susceptible Escherichia coli assessed as resistant isolates by CLSI M7-A7 broth microdilution method
# Escherichia coli [35] = test: Antibacterial activity against ceftazidime-nonsusceptible Escherichia coli by CLSI M7-A7 broth microdilution method
# Escherichia coli [36] = test: Antibacterial activity against ceftazidime-nonsusceptible Escherichia coli assessed as susceptible isolates by CLSI M7-A7 broth microdilution method
# Escherichia coli [37] = test: Antibacterial activity against ceftazidime-nonsusceptible Escherichia coli assessed as resistant isolates by CLSI M7-A7 broth microdilution method
# Klebsiella pneumoniae [38] = test: Antibacterial activity against ceftazidime-susceptible Klebsiella pneumoniae by CLSI M7-A7 broth microdilution method
# Klebsiella pneumoniae [39] = test: Antibacterial activity against ceftazidime-susceptible Klebsiella pneumoniae assessed as resistant isolates by CLSI M7-A7 broth microdilution method
# Klebsiella pneumoniae [40] = test: Antibacterial activity against ceftazidime-nonsusceptible Klebsiella pneumoniae by CLSI M7-A7 broth microdilution method
# Klebsiella pneumoniae [41] = test: Antibacterial activity against ceftazidime-nonsusceptible Klebsiella pneumoniae assessed as susceptible isolates by CLSI M7-A7 broth microdilution method
# Klebsiella pneumoniae [42] = test: Antibacterial activity against ceftazidime-nonsusceptible Klebsiella pneumoniae assessed as resistant isolates by CLSI M7-A7 broth microdilution method
# Morganella morganii [43] = test: Antibacterial activity against ceftazidime-susceptible Morganella morganii by CLSI M7-A7 broth microdilution method
# Morganella morganii [44] = test: Antibacterial activity against ceftazidime-susceptible Morganella morganii assessed as susceptible isolates by CLSI M7-A7 broth microdilution method
# Morganella morganii [45] = test: Antibacterial activity against ceftazidime-susceptible Morganella morganii assessed as resistant isolates by CLSI M7-A7 broth microdilution method
# Proteus mirabilis [46] = test: Antibacterial activity against ceftazidime-susceptible Proteus mirabilis by CLSI M7-A7 broth microdilution method
# Proteus mirabilis [47] = test: Antibacterial activity against ceftazidime-susceptible Proteus mirabilis assessed as susceptible isolates by CLSI M7-A7 broth microdilution method
# Proteus mirabilis [48] = test: Antibacterial activity against ceftazidime-susceptible Proteus mirabilis assessed as resistant isolates by CLSI M7-A7 broth microdilution method
# Serratia marcescens [49] = test: Antibacterial activity against ceftazidime-susceptible Serratia marcescens by CLSI M7-A7 broth microdilution method
# Serratia marcescens [50] = test: Antibacterial activity against ceftazidime-susceptible Serratia marcescens assessed as resistant isolates by CLSI M7-A7 broth microdilution method
# Acinetobacter [51] = test: Antibacterial activity against multidrug-resistant Acinetobacter by CLSI M7-A7 broth microdilution method
# Acinetobacter [52] = test: Antibacterial activity against multidrug-resistant Acinetobacter assessed as susceptible isolates by CLSI M7-A7 broth microdilution method
# Acinetobacter [53] = test: Antibacterial activity against multidrug-resistant Acinetobacter assessed as resistant isolates by CLSI M7-A7 broth microdilution method
# Acinetobacter [54] = test: Antibacterial activity against imipenem-susceptible Acinetobacter by CLSI M7-A7 broth microdilution method
# Acinetobacter [55] = test: Antibacterial activity against imipenem-susceptible Acinetobacter assessed as susceptible isolates by CLSI M7-A7 broth microdilution method
# Acinetobacter [56] = test: Antibacterial activity against imipenem-susceptible Acinetobacter assessed as resistant isolates by CLSI M7-A7 broth microdilution method
# Haemophilus influenzae [57] = test: Antibacterial activity against beta lactamase-negative Haemophilus influenzae by CLSI M7-A7 broth microdilution method
# Haemophilus influenzae [58] = test: Antibacterial activity against beta lactamase-positive Haemophilus influenzae by CLSI M7-A7 broth microdilution method
# Haemophilus influenzae [59] = test: Antibacterial activity against beta lactamase-positive Haemophilus influenzae assessed as susceptible isolates by CLSI M7-A7 broth microdilution method
# Providencia sp. [60] = test: Antibacterial activity against ceftazidime-susceptible Providencia sp. by CLSI M7-A7 broth microdilution method
# Providencia sp. [61] = test: Antibacterial activity against ceftazidime-susceptible Providencia sp. assessed as susceptible isolates by CLSI M7-A7 broth microdilution method
# Providencia sp. [62] = test: Antibacterial activity against ceftazidime-susceptible Providencia sp. assessed as resistant isolates by CLSI M7-A7 broth microdilution method
compound,measurement,setting,value
Cc1onc(-c2ccccc2)c1C(=O)N[C@@H]1C(=O)N2[C@@H]1SC(C)(C)[C@@H]2C(=O)O [OXACILLIN],MIC50,Staphylococcus aureus [1],0.25 mg/L
same,MIC90,Staphylococcus aureus [1],0.5 mg/L
same,Activity,Staphylococcus aureus [2],100%
same,Activity,Staphylococcus aureus [3],0%
same,MIC50,Staphylococcus aureus [4],> 8 mg/L
same,MIC90,Staphylococcus aureus [4],> 8 mg/L
same,Activity,Staphylococcus aureus [5],0%
same,Activity,Staphylococcus aureus [6],100%
same,MIC50,Staphylococcus aureus [7],0.12 mg/L
same,MIC90,Staphylococcus aureus [7],0.25 mg/L
same,Activity,Staphylococcus aureus [8],100%
same,Activity,Staphylococcus aureus [9],0%
same,MIC50,Staphylococcus aureus [10],> 8 mg/L
same,MIC90,Staphylococcus aureus [10],> 8 mg/L
same,Activity,Staphylococcus aureus [11],0%
same,Activity,Staphylococcus aureus [12],100%
same,MIC50,Enterococcus faecalis [13],> 8 mg/L
same,MIC90,Enterococcus faecalis [13],> 8 mg/L
same,MIC50,Enterococcus faecalis [14],> 8 mg/L
same,MIC90,Enterococcus faecalis [14],> 8 mg/L
same,MIC,Enterococcus faecium,> 8 mg/L
same,MIC50,Enterococcus faecium,> 8 mg/L
same,MIC90,Enterococcus faecium,> 8 mg/L
same,MIC50,Moraxella catarrhalis,4 mg/L
same,MIC90,Moraxella catarrhalis,> 8 mg/L
GENTAMICIN,MIC50,Enterobacteriaceae [15],0.5 mg/L
same,MIC90,Enterobacteriaceae [15],2 mg/L
same,Activity,Enterobacteriaceae [16],92.6%
same,Activity,Enterobacteriaceae [17],5.9%
same,MIC50,Enterobacteriaceae [18],4 mg/L
same,MIC90,Enterobacteriaceae [18],> 16 mg/L
same,Activity,Enterobacteriaceae [19],52.3%
same,Activity,Enterobacteriaceae [20],40.5%
same,MIC50,Citrobacter freundii [21],0.5 mg/L
same,MIC90,Citrobacter freundii [21],8 mg/L
same,Activity,Citrobacter freundii [22],88%
same,Activity,Citrobacter freundii [23],10%
same,MIC50,Citrobacter freundii [24],0.5 mg/L
same,MIC90,Citrobacter freundii [24],16 mg/L
same,Activity,Citrobacter freundii [25],81.8%
same,Activity,Citrobacter freundii [26],18.2%
same,MIC50,Enterobacter cloacae [27],0.25 mg/L
same,MIC90,Enterobacter cloacae [27],0.5 mg/L
same,Activity,Enterobacter cloacae [28],96%
same,Activity,Enterobacter cloacae [29],2%
same,MIC50,Enterobacter cloacae [30],0.5 mg/L
same,MIC90,Enterobacter cloacae [30],16 mg/L
same,Activity,Enterobacter cloacae [31],17.1%
same,MIC50,Escherichia coli [32],0.5 mg/L
same,MIC90,Escherichia coli [32],2 mg/L
same,Activity,Escherichia coli [33],91.9%
same,Activity,Escherichia coli [34],7.5%
same,MIC50,Escherichia coli [35],16 mg/L
same,MIC90,Escherichia coli [35],> 16 mg/L
same,Activity,Escherichia coli [36],46%
same,Activity,Escherichia coli [37],50.8%
same,MIC50,Klebsiella pneumoniae [38],0.25 mg/L
same,MIC90,Klebsiella pneumoniae [38],0.5 mg/L
same,Activity,Klebsiella pneumoniae [39],1.9%
same,MIC50,Klebsiella pneumoniae [40],8 mg/L
same,MIC90,Klebsiella pneumoniae [40],> 16 mg/L
same,Activity,Klebsiella pneumoniae [41],43.9%
same,Activity,Klebsiella pneumoniae [42],43.9%
same,MIC50,Morganella morganii [43],0.5 mg/L
same,MIC90,Morganella morganii [43],4 mg/L
same,Activity,Morganella morganii [44],91.2%
same,Activity,Morganella morganii [45],8.8%
same,MIC50,Proteus mirabilis [46],1 mg/L
same,MIC90,Proteus mirabilis [46],8 mg/L
same,Activity,Proteus mirabilis [47],84.5%
same,Activity,Proteus mirabilis [48],8.6%
same,MIC50,Serratia marcescens [49],0.5 mg/L
same,MIC90,Serratia marcescens [49],1 mg/L
same,Activity,Serratia marcescens [50],1.7%
same,MIC50,Acinetobacter [51],> 16 mg/L
same,MIC90,Acinetobacter [51],> 16 mg/L
same,Activity,Acinetobacter [52],18.8%
same,Activity,Acinetobacter [53],75%
same,MIC50,Acinetobacter [54],1 mg/L
same,MIC90,Acinetobacter [54],> 16 mg/L
same,Activity,Acinetobacter [55],74.5%
same,Activity,Acinetobacter [56],21.3%
same,MIC50,Haemophilus influenzae [57],1 mg/L
same,MIC90,Haemophilus influenzae [57],2 mg/L
same,MIC50,Haemophilus influenzae [58],1 mg/L
same,MIC90,Haemophilus influenzae [58],2 mg/L
same,Activity,Haemophilus influenzae [59],0%
same,MIC50,Providencia sp. [60],2 mg/L
same,MIC90,Providencia sp. [60],> 16 mg/L
same,Activity,Providencia sp. [61],74.1%
same,Activity,Providencia sp. [62],14.8%
